Key:
[1] = biological target: CXXC5-Dvl interaction (PDZ domain of Dvl (dishevelled) protein / PTD-DBM-FITC); test: CXXC5-Dvl binding inhibition, competition of PTD-DBM-FITC on plate-bound Dvl PDZ domain; conditions: purified Dvl PDZ domain 5 μg/mL, 10 μM PTD-DBM-FITC, compounds 0.001-100 μM, FITC fluorescence
Procedure: 5 μg/mL of the purified PDZ domain ofDvl (dishevelled) protein was attached to the bottom of a 96-well black immunoplate and left in a chamber at 4° C. for one day. The next day, each well was washed with PBS and 10 μM PTD-DBM-FITC was added. After incubation at room temperature for 3 hours, each well was washed with PBS. Each well was treated with the indoline derivatives at various concentrations (100, 10, 1, 0.1, 0.01, and 0.001 μM) in 100 μL of PBS. After washing with a buffer, fluorescence was measured by FITC using a microplate reader. A competition binding curve showing the degree of CXXC5-Dvl PPI inhibition was constructed using the GraphPad Prism software, and the IC50 value was calculated. […] CK090), and the intermediate compound 5-cyanoindirubin as controls.

[2] = system: F4/80, CD11 b, α-SMA, collagen I, desmin in liver tissue; test: Liver immunohistochemistry of inflammatory (F4/80, CD11 b) and fibrosis markers (α-SMA, collagen I, desmin) in MASH mice; format: in vivo, C57BL/6N mice; conditions: 25 mg/kg/day orally for 4 weeks; vs MASH group (vehicle)
Procedure: (§1) Five-week-old wild-type male C57BL/6N mice were purchased from Orient Bio Co., Ltd. They were allowed to acclimate to the laboratory environment for one week. Mice weighing 18-20 g on average were used in the experiment. To ensure ethical and scientific validity and efficient management of animal experiments, the experiment was conducted with the approval of the Institutional Review Board (IACUC-A-202205-1472-01) of Severance Hospital, Yonsei University College of Medicine.
The mice were divided into a normal group (NCD) and a high-fat diet group (HFD). The normal group (NCD) was fed a normal chow diet (NCD, Teklad Global 18% protein rodent diet), and the high-fat diet group (HFD) was fed a high-fat diet (HFD, D12492) in which fat accounted for 60% of the total calories, for 8 weeks. […]
(§2) The sections treated with the primary antibodies were washed with PBS and incubated with biotinylated anti-mouse (1:400; Dako) or anti-rabbit (1:400; Dako) secondary antibodies for 1 hour at room temperature. […] After the staining, images were taken and analyzed using a bright-field microscope (Nikon TE-2000U).
Through these experiments, the anti-inflammatory effect of the indoline derivatives of Examples 1 to 4 were analyzed in an animal model of nonalcoholic fatty liver disease. […]

[3] = system: mice induced with metabolic dysfunction-associated steatohepatitis (MASH); test: Liver fibrosis score from collagen staining (Picrosirius red) in MASH mice; format: in vivo, C57BL/6N mice; conditions: 25 mg/kg/day orally for 4 weeks; mean±SD; normal group 0, MASH group 3.11
Procedure: as §1
(§3) The mice were divided into a normal group (NCD) and a high-fat diet group (HFD). The normal group (NCD) was fed a normal chow diet (NCD, Teklad Global 18% protein rodent diet), and the high-fat diet group (HFD) was fed a high-fat diet (HFD, D12492) in which fat accounted for 60% of the total calories, for 8 weeks.
Mice induced with metabolic dysfunction-associated steatohepatitis (MASH) (hereinafter, referred to as MASH or MASH group) were prepared by administering CCl4 intraperitoneally twice a week for 4 weeks after feeding the high-fat diet (HFD) for 8 weeks. The […] was diluted with corn oil at a ratio of 1:19 and injected at a dosage of 2 mL/kg. The normal group (NOD) was administered the same volume of physiological saline.
The animals were divided into 7 groups, each with 10 animals.
After preparing the 7 groups, the animals were euthanized using carbon dioxide and the liver tissues were extracted. The extracted tissues were fixed in 4% neutral paraformaldehyde and embedded in paraffin to prepare sections. The paraffin sections were cut to 4-μm thickness, deparaffinized, and then rehydrated. The hydrated sections were stained with a Weigert's iron hematoxylin solution for 8 minutes and then with Picrosirius red for 1 hour. Collagen fibers were stained red and nuclei were stained blue. The sections were photographed using a bright-field microscope (Nikon TE-2000U).
The main mechanism of nonalcoholic fatty liver disease is the induction of hepatic stellate cell activation, which induces collagen production and leads to liver fibrosis due to collagen accumulation. From the result of collagen staining (Picrosirius red) for observing the total amount of collagen deposition in Test Example 3-6, the liver fibrosis score was analyzed. Stages 2 to 3 were diagnosed as nonalcoholic fatty liver disease (MASH) (M. Brunt et al., 2005).
All quantitative data are presented as mean±standard deviation (SD). In each experiment, all measurements were made at least three times, and data were analyzed using the two-tailed, unpaired Student's t test. P values of <0.05 were considered statistically significant.

[4] = system: β-catenin and CXXC5 in liver tissue; test: Liver immunohistochemistry of β-catenin and CXXC5 in MASH mice; format: in vivo, C57BL/6N mice; conditions: 25 mg/kg/day orally for 4 weeks
Procedure: as §1, §3
Mice induced with metabolic dysfunction-associated steatohepatitis (MASH) (hereinafter, referred to as MASH or MASH group) were prepared by administering CCl4 intraperitoneally twice a week for 4 weeks after feeding the high-fat diet (HFD) for 8 weeks. […]
as §2

## N#Cc1ccc2c(c1)/C(=C1/Nc3ccccc3C1=O)C(=O)N2 [5-cyanoindirubin]
[1]
  IC50: 11.1 µM
[2]
  collagen production and α-SMA expression in liver (fibrosis markers): did not show any significant difference from the MASH group (vehicle)
  expression of inflammatory markers F4/80 and CD11 b in liver: no significant difference was observed from the MASH group (vehicle)
[3]
  Degree of liver fibrosis (fibrosis score): 2.89
[4]
  β-catenin expression in liver, immunohistochemical staining: no significant difference from the MASH group (vehicle)
